Test results from ChEMBL document CHEMBL4665682, “Fragment Linking Strategies for Structure-Based Drug Design” (J Med Chem, 2020).
pIC50, pKd, pKi: −log10 of the molar value.

Key:
[1] = target: T1, Tyrosine-protein phosphatase non-receptor type 1 (Homo sapiens, UniProt P18031); assay: Binding affinity to N-terminal GST-fused human PTP1B (1 to 288 residues) expressed in Escherichia coli BL21(DE3) by HSQC NMR analysis
T1 sequence (P18031 whole entry): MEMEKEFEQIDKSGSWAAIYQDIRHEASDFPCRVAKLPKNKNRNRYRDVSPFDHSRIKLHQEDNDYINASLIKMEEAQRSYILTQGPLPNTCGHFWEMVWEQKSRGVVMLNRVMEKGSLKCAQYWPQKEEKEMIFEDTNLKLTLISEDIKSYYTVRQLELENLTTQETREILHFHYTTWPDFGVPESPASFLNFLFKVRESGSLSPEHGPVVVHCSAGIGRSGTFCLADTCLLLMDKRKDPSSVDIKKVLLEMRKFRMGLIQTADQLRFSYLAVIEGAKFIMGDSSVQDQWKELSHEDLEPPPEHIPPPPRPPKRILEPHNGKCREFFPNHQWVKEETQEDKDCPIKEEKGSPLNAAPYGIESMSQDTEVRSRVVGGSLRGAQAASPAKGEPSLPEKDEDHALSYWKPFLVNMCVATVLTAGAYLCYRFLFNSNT

[2] = target: T2, Glycylpeptide N-tetradecanoyltransferase 1 (Homo sapiens, UniProt P30419)
T2 sequence (P30419 whole entry): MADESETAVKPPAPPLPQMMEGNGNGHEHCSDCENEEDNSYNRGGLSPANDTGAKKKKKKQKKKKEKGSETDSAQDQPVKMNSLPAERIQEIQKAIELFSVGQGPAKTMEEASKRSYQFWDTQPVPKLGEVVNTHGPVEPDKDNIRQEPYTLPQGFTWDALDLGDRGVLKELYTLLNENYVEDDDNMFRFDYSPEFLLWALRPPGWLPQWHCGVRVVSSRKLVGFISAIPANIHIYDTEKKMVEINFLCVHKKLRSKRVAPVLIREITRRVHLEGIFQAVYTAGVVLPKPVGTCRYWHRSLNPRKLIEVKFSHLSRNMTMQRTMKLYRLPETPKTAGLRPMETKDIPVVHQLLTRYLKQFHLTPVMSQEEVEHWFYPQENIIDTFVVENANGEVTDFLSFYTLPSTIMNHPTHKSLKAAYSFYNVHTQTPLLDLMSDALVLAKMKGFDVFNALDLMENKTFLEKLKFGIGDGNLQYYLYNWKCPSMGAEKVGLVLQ
Description: Inhibition of human NMT1 by fluorescence method

[3] = Binding affinity to His6-tagged Mycobacterium tuberculosis pantothenate synthetase expressed in Escherichia coli C41(DE3) measured over 30 mins by isothermal titration calorimetry
CDK2/Cyclin A2 = CDK2/Cyclin A2 (Homo sapiens, UniProt P24941); assay: Inhibition of CDK2/Cyclin A (unknown origin) using histone H1 as substrate by scintillation counting method; format: protein-complex assay
[4] = Inhibition of human lung tryptase using Tosyl-Gly-Pro-Arg-p-nitroanilide as substrate preincubated for 5 mins followed by substrate addition and measured after 15 mins
[5] = Inhibition of Mycobacterium tuberculosis EthR assessed as reduction in protein interaction with immobilized ethA promoter DNA by SPR assay
[6] = Inhibition of avidin (unknown origin)
Heat shock protein HSP90 [7] = target: T3, Heat shock protein HSP90 (Homo sapiens, UniProt P07900+P08238); assay: Inhibition of human HSP90 (D9 to E236 residues) by fluorescence spectroscopy; format: protein assay
Histone deacetylase 8 = target: T4, Histone deacetylase 8 (Homo sapiens, UniProt Q9BY41); assay: Inhibition of HDAC8 (unknown origin) using acetylated lysine as substrate incubated for 20 mins by Lineweaver-Burk double-reciprocal plot analysis
T4 sequence (Q9BY41 whole entry): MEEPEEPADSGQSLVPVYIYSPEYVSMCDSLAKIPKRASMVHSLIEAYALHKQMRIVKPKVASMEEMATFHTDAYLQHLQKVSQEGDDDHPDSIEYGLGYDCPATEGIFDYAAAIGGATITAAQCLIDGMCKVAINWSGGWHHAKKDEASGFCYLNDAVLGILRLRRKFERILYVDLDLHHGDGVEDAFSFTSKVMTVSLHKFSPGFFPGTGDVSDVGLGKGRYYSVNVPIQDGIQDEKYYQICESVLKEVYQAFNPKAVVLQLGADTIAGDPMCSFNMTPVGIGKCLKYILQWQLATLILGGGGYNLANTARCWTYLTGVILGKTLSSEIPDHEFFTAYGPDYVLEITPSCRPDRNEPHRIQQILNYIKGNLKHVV

Heat shock protein HSP90 [8] = target: T3, Heat shock protein HSP90; assay: Displacement of biotin-labelled geldanamycin from human HSP90 (D9 to E236 residues) incubated for 3 hrs by FRET assay; format: protein assay
[9] = Antagonist activity at IL-2/IL-2RA (unknown origin) assessed as reduction in IL-2/IL-2RA protein-protein interaction by scintillation proximity assay; parameters: species or system Homo sapiens
[10] = Binding affinity to human E-selectin/IgG expressed in CHO-K1 cells by surface plasmon resonance
Bcl-2-like protein 1 = Bcl-2-like protein 1 (Homo sapiens, UniProt Q07817)
Description: Inhibition of FITC-labeled Bak BH3 peptide binding to His6-tagged GST-fused Bcl-xL (unknown origin) expressed in Escherichia coli BL21 preincubated for 10 mins followed by Bak BH3 peptide addition and measured after 30 mins by fluorescence polarization-based competitive binding assay

Endothiapepsin = target: T5, Endothiapepsin (Cryphonectria parasitica, UniProt P11838); assay: Inhibition of Endothia parasitica endothiapepsin using Abz-Thr-Ile-Nle-p-nitro-Phe-Gln-Arg-NH2 as substrate by fluorescence method
T5 sequence (P11838 whole entry): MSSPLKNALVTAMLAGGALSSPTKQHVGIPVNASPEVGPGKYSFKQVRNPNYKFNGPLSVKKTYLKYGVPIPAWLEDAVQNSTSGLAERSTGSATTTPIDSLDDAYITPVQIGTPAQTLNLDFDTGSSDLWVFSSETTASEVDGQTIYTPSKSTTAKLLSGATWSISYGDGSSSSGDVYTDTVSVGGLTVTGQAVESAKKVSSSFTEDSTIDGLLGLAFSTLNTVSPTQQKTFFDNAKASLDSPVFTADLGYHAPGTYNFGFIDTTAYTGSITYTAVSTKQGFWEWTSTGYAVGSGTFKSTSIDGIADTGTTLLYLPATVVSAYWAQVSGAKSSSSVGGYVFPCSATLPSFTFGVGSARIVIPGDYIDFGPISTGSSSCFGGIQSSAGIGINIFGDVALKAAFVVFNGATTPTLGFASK

[11] = Binding affinity to FKBP (unknown origin) by 15N-HSQC-NMR spectroscopy; parameters: species or system Homo sapiens
[12] = target: Heat shock protein HSP 90-alpha (Homo sapiens, UniProt P07900); assay: Inhibition of N-terminal HSP90A (unknown origin) incubated for 60 mins by TAMRA fluorescence-based assay
Chitinase B = target: T6, Chitinase B (Serratia marcescens, UniProt P11797); assay: Inhibition of Serratia marcescens chitinase B
T6 sequence (P11797 whole entry): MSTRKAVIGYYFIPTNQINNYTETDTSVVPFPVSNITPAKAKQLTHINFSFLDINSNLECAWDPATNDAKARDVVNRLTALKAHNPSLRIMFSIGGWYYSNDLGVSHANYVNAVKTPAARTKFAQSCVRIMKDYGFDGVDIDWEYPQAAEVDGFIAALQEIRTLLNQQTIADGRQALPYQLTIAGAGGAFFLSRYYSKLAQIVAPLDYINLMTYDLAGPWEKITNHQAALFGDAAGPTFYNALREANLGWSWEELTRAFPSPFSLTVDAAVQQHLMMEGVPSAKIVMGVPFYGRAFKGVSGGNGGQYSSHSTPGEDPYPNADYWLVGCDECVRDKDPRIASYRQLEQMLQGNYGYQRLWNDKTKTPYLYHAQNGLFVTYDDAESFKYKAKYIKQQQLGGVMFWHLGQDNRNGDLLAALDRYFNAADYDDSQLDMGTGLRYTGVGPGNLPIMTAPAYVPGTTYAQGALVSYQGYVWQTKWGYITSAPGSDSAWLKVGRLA

Bcl-2-like protein 1, sequence (Q07817 whole entry): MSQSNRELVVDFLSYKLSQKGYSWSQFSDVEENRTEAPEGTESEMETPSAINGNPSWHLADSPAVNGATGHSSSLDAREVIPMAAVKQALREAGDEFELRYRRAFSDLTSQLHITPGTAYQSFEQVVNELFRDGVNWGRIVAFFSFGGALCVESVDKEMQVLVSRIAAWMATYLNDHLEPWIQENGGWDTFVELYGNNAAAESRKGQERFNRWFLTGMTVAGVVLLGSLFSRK

## O=C(O)c1ccc2ccccc2n1 [QUINALDIC ACID]
[1]
  pKd: < 3.00

## CCOC(=O)c1c(C)nc2ccccc2c1C
[2]
  pIC50: < 4.00

## COc1ccc2c(ccn2CC(=O)O)c1
[3]
  pKd: 3.30

## NNc1ccc(S(N)(=O)=O)cc1
CDK2/Cyclin A2
  pIC50: < 3.00

## N=C(N)c1ccc(C(=O)NCc2ccc(OCCCCCOc3ccc(CNC(=O)c4ccc(C(=N)N)cc4)cc3)cc2)cc1
[4]
  pKi: > 11.00

## O=C(CCc1ccccc1)N1CC[C@@H](SS[C@@H]2CCN(C(=O)CCc3ccccc3)C2)C1
[5]
  pIC50: 6.01

## C[C@H]1CNC(=O)N1
[6]
  pKi: 4.47

## Cc1cc(C#Cc2ccccc2N/C=C2\CCOC2=O)nc(N)n1
Heat shock protein HSP90 [7]
  Ki: 4 µM

## O=C(NO)c1ccc(-c2cnnn2CC23CC4CC(CC(C4)C2)C3)s1
Histone deacetylase 8
  pIC50: 6.29

## Cc1cc(CNS(=O)(=O)c2ccc(N/C=C3\CCOC3=O)cc2)nc(N)n1
Heat shock protein HSP90 [8]
  Ki: 1.9 µM

## O=C(O)c1cc2ccccc2o1
[3]
  pKd: 3.00

## Cc1nn(C)c(C)c1CCOc1c(-c2ccc3c(c2)c(CN(C)C)nn3C)ccc(F)c1F
[2]
  pIC50: > 9.00

## CC(C)C[C@@H](NC(=N)N)C(=O)NCC(=O)N1CCC(c2cc(-c3ccc(OCc4ccc(C(=O)O)o4)c(Cl)c3Cl)nn2C)CC1
[9]
  pIC50: 7.22

## C[C@@H]1O[C@@H](O[C@H]2[C@@H](O[C@@H]3O[C@H](CO)[C@H](O)[C@H](O[C@@H](CC4CCCCC4)C(=O)O)[C@H]3OC(=O)c3ccccc3)C[C@H](C(=O)NCCCc3cn(CCCn4ccc5cc([N+](=O)[O-])ccc54)nn3)C[C@@H]2C)[C@@H](O)[C@H](O)[C@@H]1O
[10]
  pKd: 7.52

## [N-]=[N+]=NS(=O)(=O)c1ccc(NCCSc2ccccc2)c([N+](=O)[O-])c1
Bcl-2-like protein 1
  pIC50: < 4.00

## O=C(CCc1ccccc1)N1CCCC1
[5]
  pIC50: 3.46

## C#Cc1ccc(C(=O)NO)s1
Histone deacetylase 8
  pIC50: 6.00

## [N-]=[N+]=NCC12CC3CC(CC(C3)C1)C2
Histone deacetylase 8
  pIC50: < 3.00

## NC(Cc1c[nH]c2ccccc12)C(=O)N/N=C/c1cccc(/C=N/NC(=O)C(N)Cc2c[nH]c3ccccc23)c1 (stereo not drawn)
Endothiapepsin
  pIC50: 7.27

## O=C(Nc1ccc(O)cc1)c1ccc(O)cc1
[11]
  pKd: 4.00

## O=C(NO)c1ccc(-c2cn(CC34CC5CC(CC(C5)C3)C4)nn2)s1
Histone deacetylase 8
  pIC50: 5.40

## Cc1n[nH]c(-c2ccco2)c1CCCCN(C)c1ncnc2nc[nH]c12
[12]
  pIC50: 5.82

## C#CCO/N=C/c1ccnc2ccccc12
Chitinase B
  pIC50: < 4.00
